Holding throughout (assay type): in vivo
Data set [1] relates to houseflies (Musca domestica). Nature of the data set: whole plant or invertebrate. The following applies: 4 hours; for mortality at 0.02 mg: 0.02 mg active ingredient per dish. How it is done: Continuous contact action on houseflies (Musca domestica)
Both covers and bottoms of Petri dishes 10 cm in diameter are lined with a total per dish of 2 ml of acetonic solutions of the active ingredients. After the solvent has evaporated (about 30 mins.), 10 flies are introduced into each dish. The kill rate is determined after 4 hours.

Data set [2] has as its system caterpillars of the diamondback moth (Plutella maculipennis). Nature of the data set: Contact action and effect of ingested food on caterpillars of the diamondback moth (Plutella maculipennis). To be noted: 4th stage caterpillars, 48 hours, read-out: Kill rate; for mortality at 0.002 %: 0.002 wt % in emulsion; for mortality at 0.01 %: 0.01 wt % in emulsion; for mortality at 0.001 %: 0.001 wt % in emulsion; for mortality at 0.02 %: 0.02 wt % in emulsion. How it is done: Contact action and effect of ingested food on caterpillars of the diamondback moth (Plutella maculipennis)
Leaves of young cabbage plants are dipped for 3 seconds in aqueous emulsions of the active ingredients and, after excess liquid has been briefly allowed to drip off, placed on a moist filter paper in a Petri dish. 10 caterpillars of the 4th stage are then placed on each leaf.
(§1) The action is assessed after 48 hours.

Data set [3] has as its system bean aphids (Aphis fabae). Nature of the data set: Contact action on bean aphids (Aphis fabae); spray experiment. The following applies: 48 hours; for mortality at 0.01 %: 0.01 wt % in formulation; for mortality at 0.005 %: 0.005 wt % in formulation. How it is done:
Contact action on bean aphids (Aphis fabae); spray experiment
Potted bean plants (Vicia faba) with extensive bean aphid colonies are sprayed to runoff in a spray booth with aqueous formulations of the active ingredients.
as §1

The test system of data set [4] is cockroaches (Blatta orientalis). Nature of the data set: whole plant or invertebrate. To be noted: 48 hours; for mortality at 0.1 mg: 0.1 mg active ingredient per jar; for mortality at 0.2 mg: 0.2 mg active ingredient per jar. How it is done:
Contact action on cockroaches (Blatta orientalis)
The bottom of 1-liter preserving jars is treated with acetonic solutions of the active ingredients. After the solvent has evaporated, 5 adult cockroaches are placed in each jar, and the kill rate is determined after 48 hours.

The test system of data set [5] is ticks (Ornithodorus moubata). Nature of the data set: Contact action on ticks (Ornithodorus moubata). The following applies: 3rd larval stage, 48 hours. How it is done:
Contact action on ticks (Ornithodorus moubata)
Ticks in the 3rd larval stage are placed in paper bags and dipped for 3 seconds in the emulsion under investigation. The bags are then suspended. The action on the ticks is assessed after 48 hours.

Data set [6] has as its system houseflies (Musca domestica). Nature of the data set: Contact action on houseflies (Musca domestica), topical to ventral abdomen. To be noted: 1 μl in acetone to ventral abdomen; 4-day old imagoes; 4 hours; worked out by graph. How it is done:
Contact action on houseflies (Musca domestica)
1 μl of the active ingredients dissolved in acetone is administered by means of a microsyringe to the ventral abdomen of 4-day old imagoes under slight CO2 narcosis.
20 animals treated in the same way are then placed in a plastic bag having a volume of approx. 500 ml. After 4 hours, the animals in supine position are counted and the LD50 is worked out by means of a graph.

In data set [7] the test system is root-knot nematodes (Meloidogyne incognita). Nature of the data set: Action on root-knot nematodes (Meloidogyne incognita). The following applies: cucumber, 6 to 8 weeks. How it is done:
Action on root-knot nematodes (Meloidogyne incognita)
Garden soil heavily infested with Meloidogyne incognita is split into 200 g portions which are intimately mixed with 30 ml of aqueous active ingredient formulations and filled into plastic pots. Two cucumber seeds are then placed in the soil prepared in this manner. The temperature is not allowed to go below +22° C.
After 6 to 8 weeks root attack is assessed.

Where [8] appears, read: Musca domestica, read-out: Kill rate.
[9] abbreviates: Blatta orientalis, read-out: Kill rate.
Setting [10] is: Musca domestica, 0.2 mg active ingredient per dish, read-out: Kill rate.
Setting [11] is: Aphis fabae, read-out: Kill rate.
Where [12] appears, read: Aphis fabae, 0.02 wt % in formulation, read-out: Kill rate.

For the compound `COP(=O)(OCC1CC1(Cl)Cl)Oc1ccc(SC)cc1` (centres unmarked) [compound 24], the mortality at 0.02 mg in data set [1] (setting [8]) amounted to 100%. Further, the mortality at 0.002 % came out at 80% in data set [2] and 100% in data set [3] (Aphis fabae, 0.002 wt % in formulation, read-out: Kill rate). Besides, the mortality at 0.1 mg in data set [4] (setting [9]) is 100%. Also, the Kill rate in data set [5] (1.0 ppm in emulsion) amounted to 100%. In data set [6], this compound yielded an LD50 of 0.051 μg/fly.
`CCOP(=O)(OCC1C(C)(C)C1(Cl)Cl)Oc1ccc(SC)c(C)c1` (centres unmarked) [compound 19] displayed a Kill rate in data set [5] (10.0 ppm in emulsion) of 100%.
With `COP(=O)(OCC1C(C)C1(Cl)Cl)Oc1ccc([N+](=O)[O-])cc1` (centres unmarked) [compound 31], the mortality at 0.01 % in data set [2] was determined as 80%. Besides, the mortality at 0.2 mg in data set [4] (setting [9]) was 100%. Further, in data set [5] (5.0 ppm in emulsion), the Kill rate is 100%.
On to `COP(=O)(OCC1C(C)(C)C1(Cl)Cl)Oc1ccc([N+](=O)[O-])cc1` (centres unmarked) [compound 7], for which the mortality at 0.2 mg in data set [1] (setting [10]) and in data set [4] (setting [9]) was 100% each time. Also, the mortality at 0.01 % in data set [2] was 80%; in data set [3] (setting [11]), roughly 90%. Further, the Kill rate in data set [5] (10.0 ppm in emulsion) was 100%.
Turning to `COP(=O)(OCC1C(C)C1(Cl)Cl)Oc1cc(Cl)c(Cl)cc1Cl` (centres unmarked) [compound 28], in data set [1] (setting [10]), the mortality at 0.2 mg is 80%. The mortality at 0.02 % in data set [3] (setting [12]) turned out to be 100%.
`COP(=O)(OCC1(C)CC1(Cl)Cl)Oc1ccc([N+](=O)[O-])c(C)c1` (centres unmarked) [compound 33]: the mortality at 0.2 mg in data set [1] (setting [10]) stood at 80%. Moreover, in data set [3] (setting [11]), the mortality at 0.01 % turned out to be 100%.
Consider `CCOP(=S)(Oc1ccc(Cl)cc1Cl)c1ccccc1` (centres unmarked) [II], for which the Kill rate result in data set [1] (0.2 mg active ingredient per dish) is “ineffective”; in data set [3] (0.02 wt % in formulation) it was less than 80%; in data set [4] (1.0 mg active ingredient per jar), “ineffective”.
`COP(=O)(OCC1CC1(Cl)Cl)Oc1cc(Cl)c(Cl)cc1Cl` (centres unmarked) [Active ingredient 4, O-methyl-O-[(2,2-dichloro-cyclopropyl)-methyl]-O-(2,4,5-trichlorophenyl)phosphate]: the mortality at 0.02 mg in data set [1] (setting [8]) was determined as 100%. Moreover, the mortality at 0.01 % in data set [3] (setting [11]) was roughly 90%. In addition, the Kill rate in data set [5] (5.0 ppm in emulsion) stood at 100%. The same compound showed an LD50 in data set [6] of 0.055 μg/fly.
Consider `COP(=O)(OCC1C(C)C1(Cl)Cl)Oc1ccc(Cl)cc1Cl` (centres unmarked) [compound 29], for which the mortality at 0.02 % in data set [3] (setting [12]) turned out to be 100%.
Turning to `COP(=O)(OCC1CC1(Cl)Cl)Oc1ccc(C#N)cc1` (centres unmarked) [compound 23], the mortality at 0.02 mg in data set [1] (setting [8]) was 100%. The mortality at 0.001 % in data set [2] was 80%. Also, the mortality at 0.005 % in data set [3] (setting [11]) is roughly 90%. The mortality at 0.1 mg in data set [4] (setting [9]) was 100%. Also, the Kill rate in data set [5] (1.0 ppm in emulsion) turned out to be 100%. The LD50 in data set [6] is 0.073 μg/fly.
Turning to `COP(=O)(OCC1(C)CC1(Cl)Cl)Oc1ccc(SC)cc1` (centres unmarked) [compound 21], in data set [1] (setting [10]), the mortality at 0.2 mg turned out to be 100%. In addition, the mortality at 0.1 mg in data set [4] (setting [9]) worked out at 100%. Besides, in data set [5] (1.0 ppm in emulsion), the Kill rate was 100%.
As for `COP(=O)(OCC1CC1(Cl)Cl)Oc1ccccc1[N+](=O)[O-]` (centres unmarked) [Active ingredient 3, O-methyl-O-[(2,2-dichlorocyclopropyl)-methyl]-O-(2-nitrophenyl)phosphate], in data set [3] (setting [11]), the mortality at 0.005 % turned out to be 100%.
For the compound `COP(=O)(OCC1CC1(Cl)Cl)Oc1ccc(Cl)cc1Cl` (centres unmarked) [compound 26], the mortality at 0.2 mg in data set [1] (setting [10]) was determined as 100%. Further, the mortality at 0.02 % in data set [3] (setting [12]) was found to be 100%.
As to `COP(=O)(OCC1C(C)(C)C1(Cl)Cl)Oc1ccc(SC)c(C)c1` (centres unmarked) [compound 20], in data set [5] (2.5 ppm in emulsion), the Kill rate amounted to 100%.
On to `CCOP(=O)(OCC1C(C)(C)C1(Cl)Cl)Oc1ccc([N+](=O)[O-])cc1` (centres unmarked) [Active ingredient 1, O-ethyl-O-[(2,2-dichloro-3,3-dimethyl-cyclopropyl)-methyl]-O-(4-nitrophenyl)phosphate], for which the mortality at 0.02 % in data set [2] and in data set [3] (setting [12]) was 100% throughout. Also, the mortality at 0.25 mg in data set [4] (Blatta orientalis, 0.25 mg active ingredient per jar, 5 adult cockroaches, read-out: Kill rate) amounted to 80%. In data set [5] (10.0 ppm in emulsion), this compound registered a Kill rate of 100%.
On to `COP(=O)(OCC1C(C)C1(Cl)Cl)Oc1ccc(SC)cc1` (centres unmarked) [compound 30], for which the mortality at 0.2 mg in data set [1] (setting [10]) was 100%. Further, the mortality at 0.01 % in data set [3] (setting [11]) is 100%. Further, in data set [5] (10.0 ppm in emulsion), the Kill rate is reported as 100%.
Turning to `COP(=S)(OC)Oc1ccc([N+](=O)[O-])c(C)c1` [IV], in data set [4] (0.25 mg active ingredient per jar, 5 adult cockroaches), the Kill rate result was “ineffective”.
In the case of `COP(=O)(OCC1CC1(Cl)Cl)Oc1ccc([N+](=O)[O-])cc1` (centres unmarked) [compound 27], the mortality at 0.02 mg in data set [1] (setting [8]) worked out at 100%; in data set [4] (Blatta orientalis, 0.02 mg active ingredient per jar, read-out: Kill rate), 80%. In addition, the mortality at 0.001 % in data set [2] is 100%. In addition, in data set [3] (setting [11]), the mortality at 0.005 % was roughly 90%. Besides, the Kill rate in data set [5] (1.0 ppm in emulsion) turned out to be 100%. In addition, the LD50 in data set [6] is 0.057 μg/fly.
As to `COP(=O)(OCC1CC1(Cl)Cl)Oc1ccc(SC)c(C)c1` (centres unmarked) [compound 25], the mortality at 0.02 mg in data set [1] (setting [8]) stood at 80%. For the same compound, in data set [2], the mortality at 0.002 % came to 80%. Further, in data set [3] (setting [11]), the mortality at 0.005 % stood at 100%. Further, the mortality at 0.2 mg in data set [4] (setting [9]) came out at 100%. The compound further had a Kill rate in data set [5] (10.0 ppm in emulsion) of 100%.
Consider `COP(=O)(OCC1(C)CC1(Cl)Cl)Oc1cc(Cl)c(Cl)cc1Cl` (centres unmarked) [compound 16], for which, in data set [7] (0.05 % active ingredient concentration), the “root attack (root-knots)” value is “no root-knots”.
Turning to `COP(=O)(OCC1(C)CC1(Cl)Cl)Oc1ccc([N+](=O)[O-])cc1Cl` (centres unmarked) [compound 32], the mortality at 0.2 mg in data set [1] (setting [10]) came out at 100%. Besides, the mortality at 0.008 % in data set [3] (Aphis fabae, 0.008 wt % in formulation, read-out: Kill rate) is 100%. For the same compound, the Kill rate in data set [5] (10.0 ppm in emulsion) was determined as 100%.
As to `COP(=O)(OCC1(C)CC1(Cl)Cl)Oc1ccc([N+](=O)[O-])cc1` (centres unmarked) [compound 10], in data set [1] (setting [10]), the mortality at 0.2 mg came to 100%. The mortality at 0.01 % in data set [2] and in data set [3] (setting [11]) was 100% in each case. Further, in data set [4] (Blatta orientalis, 0.04 mg active ingredient per jar, read-out: Kill rate), the mortality at 0.04 mg stood at 100%. The Kill rate in data set [5] (10.0 ppm in emulsion) is 100%.
Regarding `COP(=O)(OCC1C(C)(C)C1(Cl)Cl)Oc1ccc(SC)cc1` (centres unmarked) [compound 17], the mortality at 0.2 mg in data set [1] (setting [10]) worked out at 80%. This compound showed a Kill rate in data set [5] (2.5 ppm in emulsion) of 100%.
On to `CCOP(=O)(OCC1C(C)(C)C1(Cl)Cl)Oc1ccc(SC)cc1` (centres unmarked) [compound 18], for which the Kill rate in data set [5] (2.5 ppm in emulsion) stood at 100%.
Turning to `CCOP(=S)(OCC)SCC1CC1(Cl)Cl` (centres unmarked) [I], in data set [7] (0.1 % active ingredient concentration, ditto mark repeats "no root-knots"), the “root attack (root-knots)” value was “sporadic root-knots”. Further, the mortality at 2 mg in data set [1] (Musca domestica, 2.0 mg active ingredient per dish, read-out: Kill rate) is 100%. In addition, the mortality at 0.1 % in data set [2] (0.1 wt % in emulsion) is 50%; in data set [3] (Aphis fabae, 0.1 wt % in formulation, read-out: Kill rate), less than 50%. For the same compound, in data set [4] (Blatta orientalis, 5.0 mg active ingredient per jar, read-out: Kill rate), the mortality at 5 mg was 100%.
In data set [5] (10.0 ppm in emulsion), `COP(=O)(OCC1C(C)(C)C1(Cl)Cl)Oc1ccccc1[N+](=O)[O-]` (centres unmarked) [compound 14] returned a Kill rate of 100%.
On to `COP(=S)(OC)Oc1cc(Cl)c(Cl)cc1Cl` [III], for which the mortality at 0.02 % in data set [2] came to 50%. Further, the mortality at 0.5 mg in data set [4] (Blatta orientalis, 0.5 mg active ingredient per jar, read-out: Kill rate) came out at 100%. The compound further had an LD50 in data set [6] of 0.13 μg/fly.

Values taken from US4296108A, “2,2-Dichlorocyclopropyl-methyl-phosphoric acid derivatives” (priority 1979, dated 1981).
